According to publication PMC11284788, “NN1213 – A Potent, Long-Acting, and Selective Analog of Human Amylin” (Journal of Medicinal Chemistry, 2024):
pEC50: −log10 of the molar value. Read-outs that look alike come from different tables or passages of the source. Numbered stars: 1 amine (or outer) side, 2 acyl side, 3 side chain; on linkers, the order of the positions; unused ones are H or OH. Bridge positions count the residues as written; N and C are the ends. Side chains are listed from the residue outwards. Peptide text beside a SMILES is read from it. * marks the point of attachment. C20 diacid = O=C(O)CCCCCCCCCCCCCCCCCCC(=O)*; γGlu = O=C(O)[C@H](CCC(=O)[*:2])N[*:1]

Assays:
[1] = ThT assay: fibril formation propensity and peptide recovery; type: physicochemical; conditions: for recovery: residual dissolved peptide after 45 h of shaking, centrifugation and 0.22 μm filtration, HPLC, relative to amount before stress; for ThT, pH 7.5 lag-time: 10 mM HEPES pH 7.5, 1 μM ThT
How it was run: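 Fibrillation lag time is read visually from ThT fluorescence-time curves (444/485 nm, 20-min reads, 45 h, 37 °C, 960 rpm shaking) of 250 μM peptide with 1 μM ThT at pH 4.0 or 7.5. The most conservative of four replicates is used. Peptide recovery is post-stress soluble peptide (HPLC, 215/276 nm) as fraction of initial.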

hAMY3R = molecular target: T1, hAMY3R (Homo sapiens, UniProt O60896+P30988); test: cAMP-responsive element luciferase reporter assay, human AMY3R; type: cell-based; design: expressed in transfected cells; conditions: for ratio hCTR/hAMY3R: ratio of luciferase EC50 values; for EC50 / pEC50: luciferase (human receptor assay); for EC50: Tables S12 and S14, read-out: hAMY3R pEC50 (converted); for pEC50: BHK cells stably expressing hCTR+RAMP3 and CRE-luciferase, 3 h, 37 °C, 10% FBS, read-out: hAMY3R EC50
T1 sequence (P30988 25-474): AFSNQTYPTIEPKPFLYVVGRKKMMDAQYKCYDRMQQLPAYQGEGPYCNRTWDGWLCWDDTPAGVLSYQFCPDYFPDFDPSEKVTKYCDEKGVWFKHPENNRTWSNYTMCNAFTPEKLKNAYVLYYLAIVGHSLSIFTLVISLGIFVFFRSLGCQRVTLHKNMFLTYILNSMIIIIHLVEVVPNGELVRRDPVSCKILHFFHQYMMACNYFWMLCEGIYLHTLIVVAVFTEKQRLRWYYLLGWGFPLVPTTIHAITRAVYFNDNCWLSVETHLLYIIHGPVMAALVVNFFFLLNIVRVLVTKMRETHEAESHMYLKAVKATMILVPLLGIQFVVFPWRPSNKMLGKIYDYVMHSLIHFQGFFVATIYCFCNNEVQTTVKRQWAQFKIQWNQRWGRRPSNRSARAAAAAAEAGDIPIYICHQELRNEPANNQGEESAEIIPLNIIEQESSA
T1 sequence (O60896 24-148 partner): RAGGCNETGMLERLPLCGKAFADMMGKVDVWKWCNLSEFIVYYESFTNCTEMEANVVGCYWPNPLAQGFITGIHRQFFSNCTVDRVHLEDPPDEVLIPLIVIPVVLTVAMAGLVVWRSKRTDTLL

[2] = 250 μM peptide, 37 °C, 960 rpm, 45 h, lowest of four replicas, average of experiments

Row | Compound | ThT, pH 4.0 lag-time ([1]; 250 μM peptide, 10 mM glycylglycine pH 4.0, 1 μM ThT, 37 °C, 960 rpm, 45 h, lowest of four replicas, average of experiments, listed as 21) [h] | recovery ([1]; pH 4.0) [%] | ratio hCTR/hAMY3R (hAMY3R; listed as 21) | ThT, pH 7.5 lag-time [1, 2] [h] | recovery ([1]; pH 7.5) [%] | EC50 (hAMY3R) [nM] | pEC50 (hAMY3R) | ratio hCTR/hAMY3R (hAMY3R)
1 | CC[C@H](C)[C@H](NC(=O)[C@H](C)NC(=O)CNC(=O)[C@H](Cc1ccccc1)NC(=O)[C@H](CC(N)=O)NC(=O)[C@@H]1CCCN1C(=O)[C@H](CO)NC(=O)[C@H](CO)NC(=O)[C@H](Cc1c[nH]cn1)NC(=O)[C@H](CCCNC(=N)N)NC(=O)[C@H](CC(C)C)NC(=O)[C@H](Cc1ccccc1)NC(=O)[C@H](CC(=O)O)NC(=O)[C@H](C)NC(=O)[C@H](CC(C)C)NC(=O)[C@H](CCCNC(=N)N)NC(=O)[C@H](CCC(N)=O)NC(=O)[C@@H](NC(=O)[C@H](C)NC(=O)[C@@H]1CSSC[C@H](NC(=O)[C@@H](N)CCCCNC(=O)CC[C@H](NC(=O)CC[C@H](NC(=O)CCCCCCCCCCCCCCCCCCC(=O)O)C(=O)O)C(=O)O)C(=O)N[C@@H](CC(N)=O)C(=O)N[C@@H]([C@@H](C)O)C(=O)N[C@@H](C)C(=O)N[C@@H]([C@@H](C)O)C(=O)N1)[C@@H](C)O)C(=O)N1CCC[C@H]1C(=O)N[C@@H](CO)C(=O)N[C@@H](CO)C(=O)N[C@H](C(=O)N[C@@H](CC(N)=O)C(=O)N[C@H](C(=O)NCC(=O)N[C@@H](CO)C(=O)N[C@@H](CCCNC(=N)N)C(=O)N[C@H](C(=O)N[C@@H](Cc1ccc(O)cc1)C(N)=O)[C@@H](C)O)C(C)C)[C@@H](C)O [NN1213] | 42 | 96 | 29 | – | – | – | – | –
2 | CC[C@H](C)[C@H](NC(=O)[C@@H]1CCCN1C(=O)CNC(=O)[C@H](Cc1ccccc1)NC(=O)[C@H](CC(N)=O)NC(=O)[C@@H]1CCCN1C(=O)[C@H](CO)NC(=O)[C@H](CO)NC(=O)[C@H](Cc1c[nH]cn1)NC(=O)[C@H](CCCNC(=N)N)NC(=O)[C@H](CC(C)C)NC(=O)[C@H](Cc1ccccc1)NC(=O)[C@H](CC(=O)O)NC(=O)[C@H](C)NC(=O)[C@H](CC(C)C)NC(=O)[C@H](CCCNC(=N)N)NC(=O)[C@H](CCC(N)=O)NC(=O)[C@@H](NC(=O)[C@H](C)NC(=O)[C@@H]1CSSC[C@H](NC(=O)[C@@H](N)CCCCNC(=O)CC[C@H](NC(=O)CC[C@H](NC(=O)CCCCCCCCCCCCCCCCCCC(=O)O)C(=O)O)C(=O)O)C(=O)N[C@@H](CC(N)=O)C(=O)N[C@@H]([C@@H](C)O)C(=O)N[C@@H](C)C(=O)N[C@@H]([C@@H](C)O)C(=O)N1)[C@@H](C)O)C(=O)N[C@@H](CC(C)C)C(=O)N[C@@H](CO)C(=O)N[C@@H](CO)C(=O)N[C@H](C(=O)N[C@@H](CC(N)=O)C(=O)N[C@H](C(=O)NCC(=O)N[C@@H](CO)C(=O)N[C@@H](CC(=O)O)C(=O)N[C@H](C(=O)N[C@@H](Cc1ccc(O)cc1)C(N)=O)[C@@H](C)O)C(C)C)[C@@H](C)O [Peptide 3] (H-K([γGlu-γGlu-C20 diacid])CNTATCATQRLADFLRHSSPNFGPILSSTNVGSDTY-NH2; disulfide 2-7) | – | – | – | 0.3 | 19 | 0.316 | 9.50 | 9.4
3 | CC(C)C[C@H](NC(=O)[C@H](CCCNC(=N)N)NC(=O)[C@H](CCC(N)=O)NC(=O)[C@@H](NC(=O)[C@H](C)NC(=O)[C@@H]1CSSC[C@H](NC(=O)[C@@H](N)CCCCNC(=O)CC[C@H](NC(=O)CC[C@H](NC(=O)CCCCCCCCCCCCCCCCCCC(=O)O)C(=O)O)C(=O)O)C(=O)N[C@@H](CC(N)=O)C(=O)N[C@@H]([C@@H](C)O)C(=O)N[C@@H](C)C(=O)N[C@@H]([C@@H](C)O)C(=O)N1)[C@@H](C)O)C(=O)N[C@@H](C)C(=O)N[C@@H](CC(=O)O)C(=O)N[C@@H](Cc1ccccc1)C(=O)N[C@@H](CC(C)C)C(=O)N[C@@H](CCCNC(=N)N)C(=O)N[C@@H](Cc1c[nH]cn1)C(=O)N[C@@H](CO)C(=O)N[C@@H](CO)C(=O)N1CCC[C@H]1C(=O)N[C@@H](CC(N)=O)C(=O)N[C@@H](Cc1ccccc1)C(=O)NCC(=O)N[C@@H](C)C(=O)N1CCC[C@H]1C(=O)N[C@@H](CC(C)C)C(=O)N[C@@H](CO)C(=O)N[C@@H](CO)C(=O)N[C@H](C(=O)N[C@@H](CC(N)=O)C(=O)N[C@H](C(=O)NCC(=O)N[C@@H](CO)C(=O)N[C@@H](CC(=O)O)C(=O)N[C@H](C(=O)N[C@@H](Cc1ccc(O)cc1)C(N)=O)[C@@H](C)O)C(C)C)[C@@H](C)O [Peptide 5] (H-K([γGlu-γGlu-C20 diacid])CNTATCATQRLADFLRHSSPNFGAPLSSTNVGSDTY-NH2; disulfide 2-7) | – | – | – | 35 | 100 | 0.219 | 9.66 | 12
4 | CC[C@H](C)[C@H](NC(=O)[C@H](C)NC(=O)CNC(=O)[C@H](Cc1ccccc1)NC(=O)[C@H](CC(N)=O)NC(=O)[C@@H]1CCCN1C(=O)[C@H](CO)NC(=O)[C@H](CO)NC(=O)[C@H](Cc1c[nH]cn1)NC(=O)[C@H](CCCNC(=N)N)NC(=O)[C@H](CC(C)C)NC(=O)[C@H](Cc1ccccc1)NC(=O)[C@H](CC(=O)O)NC(=O)[C@H](C)NC(=O)[C@H](CC(C)C)NC(=O)[C@H](CCCNC(=N)N)NC(=O)[C@H](CCC(N)=O)NC(=O)[C@@H](NC(=O)[C@H](C)NC(=O)[C@@H]1CSSC[C@H](NC(=O)[C@@H](N)CCCCNC(=O)CC[C@H](NC(=O)CC[C@H](NC(=O)CCCCCCCCCCCCCCCCCCC(=O)O)C(=O)O)C(=O)O)C(=O)N[C@@H](CC(N)=O)C(=O)N[C@@H]([C@@H](C)O)C(=O)N[C@@H](C)C(=O)N[C@@H]([C@@H](C)O)C(=O)N1)[C@@H](C)O)C(=O)N1CCC[C@H]1C(=O)N[C@@H](CO)C(=O)N[C@@H](CO)C(=O)N[C@H](C(=O)N[C@@H](CC(N)=O)C(=O)N[C@H](C(=O)NCC(=O)N[C@@H](CO)C(=O)N[C@@H](CC(=O)O)C(=O)N[C@H](C(=O)N[C@@H](Cc1ccc(O)cc1)C(N)=O)[C@@H](C)O)C(C)C)[C@@H](C)O [Peptide 6] (H-K([γGlu-γGlu-C20 diacid])CNTATCATQRLADFLRHSSPNFGAIPSSTNVGSDTY-NH2; disulfide 2-7) | – | – | – | >45 | 100 | – | – | 15
5 | CC(C)C[C@H](NC(=O)[C@H](CCCNC(=N)N)NC(=O)[C@H](CCC(N)=O)NC(=O)[C@@H](NC(=O)[C@H](C)NC(=O)[C@@H]1CSSC[C@H](NC(=O)[C@@H](N)CCCCNC(=O)CC[C@H](NC(=O)CC[C@H](NC(=O)CCCCCCCCCCCCCCCCCCC(=O)O)C(=O)O)C(=O)O)C(=O)N[C@@H](CC(N)=O)C(=O)N[C@@H]([C@@H](C)O)C(=O)N[C@@H](C)C(=O)N[C@@H]([C@@H](C)O)C(=O)N1)[C@@H](C)O)C(=O)N[C@@H](C)C(=O)N[C@@H](CC(=O)O)C(=O)N[C@@H](Cc1ccccc1)C(=O)N[C@@H](CC(C)C)C(=O)N[C@@H](CCCNC(=N)N)C(=O)N[C@@H](Cc1c[nH]cn1)C(=O)N[C@@H](CO)C(=O)N[C@@H](CO)C(=O)N[C@@H](CC(N)=O)C(=O)N1CCC[C@H]1C(=O)N[C@@H](Cc1ccccc1)C(=O)NCC(=O)N[C@@H](C)C(=O)N1CCC[C@H]1C(=O)N[C@@H](CC(C)C)C(=O)N[C@@H](CO)C(=O)N[C@@H](CO)C(=O)N[C@H](C(=O)N[C@@H](CC(N)=O)C(=O)N[C@H](C(=O)NCC(=O)N[C@@H](CO)C(=O)N[C@@H](CC(=O)O)C(=O)N[C@H](C(=O)N[C@@H](Cc1ccc(O)cc1)C(N)=O)[C@@H](C)O)C(C)C)[C@@H](C)O [Peptide 7] (H-K([γGlu-γGlu-C20 diacid])CNTATCATQRLADFLRHSSNPFGAPLSSTNVGSDTY-NH2; disulfide 2-7) | – | – | – | >45 | 100 | – | – | 6.9
